# From patent US8829195B2, “Compounds and compositions for inhibiting the activity of ABL1, ABL2 and BCR-ABL1” (Novartis AG, priority 2012, dated 2014)
# Columns and labels:
# [1] = test system: KCL-22 xenograft; experiment: In vivo efficacy in KCL-22 xenograft model, single agent treatment; parameters: species or system mouse
# Description: In Vivo Efficacy in KCL-22 Xenograft Model—Single Agent Treatment Compounds of the invention were dosed orally in a mouse KCL-22 xenograft model for 7 days. 6-8 week old female nude mice purchased from Harlan (Indianapolis Ind.) were implanted subcutaneously with 5×10^6 KCL-22 cells in 50% matrigel (BD Biosciences, #354234) in the right dorsal axillary region. […] Compounds of the invention in phosphate buffered saline were prepared weekly and dosed by oral gavage at 3-30 mg/kg twice daily (n=6 mice per dose level). Tumor volume was determined by twice weekly digital calipering and calculated as Length×Width^2/2.
# [2] = test system: KCL-22 xenograft; experiment: In vivo efficacy in KCL-22 xenograft model, dual agent treatment; parameters: species or system mouse
# Description: In Vivo Efficacy in KCL-22 Xenograft Model—Dual Agent Treatment 6-8 week old female nude mice purchased from Harlan (Indianapolis Ind.) were implanted subcutaneously with 2×10^6 KCL-22 cells in 50% matrigel (BD Biosciences, #354234) in the right dorsal axillary region. […] Compounds of the invention in a phosphate-buffered saline solution were prepared weekly and dosed by oral gavage at 30 mg/kg twice daily, and Nilotinib solution was dosed at 75 mg/kg twice daily. Animals received either single agent alone or combination of both simultaneously. Tumor volume was determined by twice weekly digital calipering and calculated as Length×Width^2/2.
# [3] = molecular target: T1, ABL1 (64-515) (Homo sapiens, UniProt P00519); experiment: Radio ABL1 (64-515) radiometric filter-binding assay; type: biochemical
# T1 construct: 3.5 nM ABL (ABL(64-515), produced in-house from E. coli); His6 followed by a PreScission protease cleavage site (N, cleaved yes); made in house; host or cells: E. coli (BL21 (DE3) according to b733)
# [4] = molecular target: T1, ABL1 (64-515); experiment: Caliper ABL1 (64-515) microfluidic mobility shift assay; type: biochemical; conditions: Table of Biochemical Data
# [5] = molecular target: T2, Ba/F3-BCR-ABL1-WT cells (Homo sapiens, UniProt P00519); experiment: Ba/F3-BCR-ABL1-WT cell proliferation assay; type: cell-based, murine; conditions: 48 hours; read-out: Ba/F3-BCR-ABL1-WT IC50
# T2 construct: fused on or other part: P11274 (Breakpoint cluster region protein)
# [6] = molecular target: T3, Ba/F3-BCR-ABL1-T315I cells (Homo sapiens, UniProt P00519, T315I, cells depend on it); experiment: Ba/F3-BCR-ABL1-T315I cell proliferation assay; type: cell-based, murine; conditions: 48 hours; read-out: Ba/F3-BCR-ABL1-T315I IC50
# T3 construct: A similar approach was used to generate Ba/F3 cells that depend on a BCR-ABL1 variant in which threonine 315 is replaced with isoleucine; fused on or other part: P11274 (Breakpoint cluster region protein)
# [7] = Estimation of human PK parameters and efficacious dose from in vivo PK; conditions: estimated from in vivo PK
# Source text: In vivo PK parameters can be utilized for the estimation of human PK parameters. Applying various methods known in the art for prediction of human PK, the predicted human clearance can be estimated.
Structure (SMILES),IC50 [3],IC50 [4],GI50 [5],GI50 [6],further results
Cc1cn(-c2cc(NC(=O)c3ccc(C)c(Nc4nccc(-c5cccnc5)n4)c3)cc(C(F)(F)F)c2)cn1 [nilotinib],–,–,–,–,"tumor regression ([1]; 75 mg/kg twice daily, positive control): 82%; tumor regression ([2]; nilotinib alone 75 mg/kg twice daily, after 4 week daily treatment): > 84%; tumor volume on relapse ([2]; nilotinib alone, after the 4 week response, most tumors): > 500 mm^3"
"Cn1ccc(-c2cc(C(=O)Nc3ccc(OC(F)(F)Cl)cc3)cnc2N2CC[C@@H](O)C2)n1 [Example 28, (R)—N-(4-(Chlorodifluoromethoxy)phenyl)-6-(3-hydroxypyrrolidin-1-yl)-5-(1-methyl-1H-pyrazol-3-yl)nicotinamide]",2.8 nM,1.9 nM,7.5 nM,150 nM,–
"O=C(Nc1ccc(OC(F)(F)C(F)(F)F)cc1)c1cnc(N2CC[C@@H](O)C2)c(-c2ccn[nH]2)c1 [Example 19, (R)-6-(3-Hydroxypyrrolidin-1-yl)-N-(4-(perfluoroethoxy)phenyl)-5-(1H-pyrazol-5-yl)nicotinamide]",5 nM,1.8 nM,13.5 nM,236 nM,–
"O=C(Nc1ccc(OC(F)(F)Cl)cc1)c1cnc(N2CC[C@@H](O)C2)c(-c2cc(C(F)(F)F)n[nH]2)c1 [Example 26, (R)—N-(4-(Chlorodifluoromethoxy)phenyl)-6-(3-hydroxypyrrolidin-1-yl)-5-(3-(trifluoromethyl)-1H-pyrazol-5-yl)nicotinamide]",12 nM,10.4 nM,9 nM,227 nM,–
"O=C(Nc1ccc(C(F)(F)C(F)(F)F)cc1)c1cnc(N2CC[C@@H](O)C2)c(-c2ccn[nH]2)c1 [Example 16, (R)-6-(3-Hydroxypyrrolidin-1-yl)-N-(4-(perfluoroethyl)phenyl)-5-(1H-pyrazol-5-yl)nicotinamide]",12 nM,< 0.13 nM,4.1 nM,92 nM,–
"O=C(Nc1ccc(OC(F)(F)Cl)cc1)c1cnc(N2CC[C@@H](O)C2)c(-c2ccn[nH]2)c1 [Example 9, (R)—N-(4-(Chlorodifluoromethoxy)phenyl)-6-(3-hydroxypyrrolidin-1-yl)-5-(1H-pyrazol-5-yl)nicotinamide]",–,–,–,–,"tumor growth inhibition compared to vehicle-treated mice ([1]; 3 mg/kg twice daily, oral, 7 days): 45%; tumor regression ([1]; 7.5 mg/kg twice daily, oral, 7 days): 56%; tumor regression ([1]; 15 mg/kg twice daily, oral, 7 days): 88%; tumor regression ([1]; 30 mg/kg twice daily, oral, 7 days): 92%; antitumor activity (FIG. 2) ([1]; daily treatment, subcutaneous KCL-22 xenografts): Dose-dependent antitumor activity; response of nilotinib resistant tumors (FIG. 3) ([2]; 30 mg/kg BID after resistance to 75 mg/kg Nilotinib BID): regression of the tumors; predicted human clearance [7]: 3 mL/min/kg; Vd ([7]; human, read-out: volume of distribution (human, estimated)): 1 L/kg"

# Continued, in another order:
IC50 [3],IC50 [4],GI50 [5],GI50 [6],Structure (SMILES),further results
2 nM,0.2 nM,1.5 nM,32 nM,"O=C(Nc1ccc(SC(F)(F)Cl)cc1)c1cnc(N2CC[C@@H](O)C2)c(-c2ccn[nH]2)c1 [Example 18, (R)—N-(4-((Chlorodifluoromethyl)thio)phenyl)-6-(3-hydroxypyrrolidin-1-yl)-5-(1H-pyrazol-5-yl)nicotinamide]",–
1 nM,1.3 nM,4 nM,149 nM,"NC[C@@H]1CCN(c2ncc(C(=O)Nc3ccc(OC(F)(F)Cl)cc3)cc2-c2ccn[nH]2)C1 [Example 21, (S)-6-(3-(Aminomethyl)pyrrolidin-1-yl)-N-(4-(chlorodifluoromethoxy)phenyl)-5-(1H-pyrazol-5-yl)nicotinamide]",–
1 nM,2.5 nM,4.1 nM,133 nM,"O=C(Nc1ccc(C(F)(F)C(F)(F)Cl)cc1)c1cnc(N2CC[C@@H](O)C2)c(-c2ccn[nH]2)c1 [Example 31, (R)—N-(4-(2-Chloro-1,1,2,2-tetrafluoroethyl)phenyl)-6-(3-hydroxypyrrolidin-1-yl)-5-(1H-pyrazol-5-yl)nicotinamide]",–
< 0.13 nM,0.3 nM,1.9 nM,44 nM,"O=C(Nc1ccc(OC(F)(F)Cl)cc1)c1cnc(N2CC[C@H](CO)C2)c(-c2ccn[nH]2)c1 [Example 10, (S)—N-(4-(Chlorodifluoromethoxy)phenyl)-6-(3-(hydroxymethyl)pyrrolidin-1-yl)-5-(1H-pyrazol-5-yl)nicotinamide]",–
